Consider 13 molecules from PMC5431883, “Enhancing Specific Disruption of Intracellular Protein Complexes by Hydrocarbon Stapled Peptides Using Lipid Based Delivery” (Scientific Reports, 2017).

In the assay the target is T1, Mdm2 (1-125) (Homo sapiens, UniProt Q00987).
T1 construct: Purified MDM2 (1-125) protein was titrated against 50 nM carboxyfluorescein (FAM)-labeled; GST (N, cleaved yes); made in house; host or cells: E. coli BL21 DE3 (pGEX-6P-1)
The experiment in a line: Mdm2 competitive fluorescence anisotropy assay (FAM-labeled 12/1 peptide displacement). Note: 250 nM MDM2. It is filed as binding. Conditions: read-out: Kd (apparent dissociation constant, competitive fluorescence anisotropy). Here is the method: analyzed with SDS page gel and concentrated using a Centricon (3.5 kDa MWCO) concentrator, Millipore. Mdm2 protein samples were then dialyzed into a buffer solution containing 20mM Bis-Tris, pH 6.5, 0.05M NaCl with 1mM DTT and loaded onto a monoS column pre-equilibrated in buffer A (20mM Bis-Tris, pH 6.5, 1mM DTT). The column was then washed in 6 column volumes of buffer A and bound protein was eluted with a linear gradient of 1M NaCL over 25 column volumes. Protein fractions were analyzed with SDS page gel and concentrated using a Centricon (3.5 kDa MWCO) concentrator, Millipore.
Protein concentration was determined using A280 using an extinction coefficients […]
Mdm2 Competitive Fluorescence Anisotropy Assay and Kd Determination […]
Dissociation constants for titration of MDM2 against […]
equation shown below:25,26
[P] is the protein concentration (MDM2), [L] is the labeled peptide concentration, r is the anisotropy measured, r0 is the anisotropy of the free peptide, rb is the anisotropy of the MDM2– FAM-labeled peptide complex, Kd is the dissociation constant, [L]t is the total FAM labeled
(1 picture or pasted object on this page, not shown here) […]
peptide concentration, and [P]t is the total MDM2 concentration. […]
respective competing ligands in subsequent competition assays.
Apparent Kd values were determined for a variety of molecules via competitive fluorescence anisotropy experiments. Titrations were carried out with the concentration of MDM2 held constant […]
The competing molecules were then titrated against the complex of the FAM-labeled peptide and protein. Apparent Kd values were determined by fitting the experimental data to the equations shown below:26,27 […]
[L]st and [L]t denote labeled ligand and total unlabeled ligand input concentrations, respectively.
Kd2 is the dissociation constant of the interaction between the unlabeled ligand and the protein. In […]
all competitive types of experiments, it is assumed that [P]t > [L]st, otherwise considerable amounts of free labeled ligand would always be present and would interfere with measurements. Kd1 is the […]
experimentally determined as described in the previous paragraph. The FAM-labeled peptide was dissolved in dimethyl sulfoxide (DMSO) at 1 mM and diluted into experimental buffer. Readings were carried out with an Envision Multilabel Reader (PerkinElmer). Experiments were carried out […]
Tween 20 buffer. All titrations were carried out in triplicate. Curve-fitting was carried out using […]
Negative control titrations of the ligands under investigation were also carried out with the fluorescently labeled peptide (in the absence of MDM2) to ensure no interactions were occurring between the ligands and FAM-labeled peptide. […]
which would otherwise indicate an unintended interaction between the ligand and the FAM-labeled peptide to be displaced from the MDM2 binding site. […]
(In general: Fluorescence polarisation rises when a labelled molecule tumbles more slowly, as on binding a larger partner.)

Positions of bridges follow the written chain, without caps; N, C: chain ends. Non-standard residues stand in square brackets, D forms with d. Residues, ends and D or L forms follow the SMILES beside them. Trp(6-Cl) = N[C@@H](Cc1c[nH]c2cc(Cl)ccc12)C(=O)O; Lys(Me2) = CN(C)CCCC[C@H](N)C(=O)O; R8 = C=CCCCCCC[C@@](C)(N)C(=O)O; Cba = N[C@@H](CC1CCC1)C(=O)O; S5 = C=CCCC[C@](C)(N)C(=O)O; Ahx = NCCCCCC(=O)O

T1 sequence (Q00987 1-125): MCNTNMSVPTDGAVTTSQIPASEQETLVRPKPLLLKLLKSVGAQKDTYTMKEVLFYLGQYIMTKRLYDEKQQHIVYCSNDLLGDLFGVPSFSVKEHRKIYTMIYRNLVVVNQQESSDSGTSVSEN

Turning to `CC(=O)N[C@@H](CCCCN(C)C)C(=O)N[C@@H](CCCCN(C)C)C(=O)NCCCCCC(=O)N[C@H](C(=O)N[C@@H](CO)C(=O)N[C@@H](Cc1ccccc1)C(=O)N[C@]1(C)CCCCCCC=CCCC[C@@](C)(C(=O)N[C@@H](CCC(=O)O)C(=O)N[C@@H](CC(N)=O)C(=O)N[C@@H](Cc2ccccc2)C(N)=O)NC(=O)[C@H](CC(C)C)NC(=O)[C@H](CC(C)C)NC(=O)[C@H](C)NC(=O)[C@H](Cc2c[nH]c3ccccc23)NC(=O)[C@H](Cc2ccc(O)cc2)NC(=O)[C@H](CCC(=O)O)NC1=O)[C@@H](C)O` [VIP-131] (Ac-[Lys(Me2)][Lys(Me2)][Ahx]TSF[R8]EYWALL[S5]ENF-NH2; staple 7-14), the Kd turned out to be 25.6 ± 2.6 nM.
Consider `CC(=O)N[C@@H](CCCCN)C(=O)N[C@@H](CCCCN)C(=O)N[C@@H](CCCCN)C(=O)NCCCCCC(=O)N[C@H](C(=O)N[C@@H](CO)C(=O)N[C@@H](CC(C)C)C(=O)N[C@]1(C)CCCCCCC=CCCC[C@@](C)(C(=O)N[C@@H](CCC(=O)O)C(=O)N[C@@H](CC(N)=O)C(=O)N[C@@H](Cc2ccccc2)C(N)=O)NC(=O)[C@H](Cc2c[nH]c3ccccc23)NC(=O)[C@H](CC(C)C)NC(=O)[C@H](C)NC(=O)[C@H](Cc2ccccc2)NC(=O)[C@H](Cc2ccc(O)cc2)NC(=O)[C@H](CCC(=O)O)NC1=O)[C@@H](C)O` [VIP-127 SCRAM] (Ac-KKK[Ahx]TSL[R8]EYFALW[S5]ENF-NH2; staple 8-15), for which the Kd was over 10000 nM.
The figure for `CC(=O)N[C@@H](Cc1c[nH]cn1)C(=O)N[C@@H](Cc1c[nH]cn1)C(=O)N[C@@H](Cc1c[nH]cn1)C(=O)NCCCCCC(=O)N[C@H](C(=O)N[C@@H](CO)C(=O)N[C@@H](Cc1ccccc1)C(=O)N[C@]1(C)CCCCCCC=CCCC[C@@](C)(C(N)=O)NC(=O)[C@H](CC(C)C)NC(=O)[C@H](CC(C)C)NC(=O)[C@H](C)NC(=O)[C@H](Cc2c[nH]c3ccccc23)NC(=O)[C@H](Cc2ccc(O)cc2)NC(=O)[C@H](CCC(=O)O)NC1=O)[C@@H](C)O` [VIP-79] is 130 ± 11.7 nM; for `CC(=O)N[C@@H](CCCCN)C(=O)N[C@@H](CCCCN)C(=O)NCCCCCC(=O)N[C@@H](CC(C)C)C(=O)N[C@H](C(=O)N[C@@H](Cc1ccccc1)C(=O)N[C@]1(C)CCCCCCC=CCCC[C@@](C)(C(=O)N[C@@H](CCC(=O)O)C(=O)N[C@@H](CC(N)=O)C(=O)N[C@@H](Cc2ccccc2)C(N)=O)NC(=O)[C@H](CC(C)C)NC(=O)[C@H](CC(C)C)NC(=O)[C@H](C)NC(=O)[C@H](Cc2c[nH]c3ccccc23)NC(=O)[C@H](Cc2ccc(O)cc2)NC(=O)[C@H](CCC(=O)O)NC1=O)[C@@H](C)O` [VIP-119] (Ac-KK[Ahx]LTF[R8]EYWALL[S5]ENF-NH2; staple 7-14) it is 2.7 ± 0.9 nM.
Take `CC(C)C[C@@H]1NC(=O)[C@H](C)NC(=O)[C@H](Cc2c[nH]c3ccccc23)NC(=O)[C@H](Cc2ccc(O)cc2)NC(=O)[C@H](CCC(=O)O)NC(=O)[C@](C)(NC(=O)[C@H](Cc2ccccc2)NC(=O)[C@H](CO)NC(=O)[C@@H](NC(=O)CNC(=O)[C@H](CO)NC(=O)CNC(=O)[C@H](CO)NC(=O)CCCC[C@@H]2SC[C@@H]3NC(=O)N[C@@H]32)[C@@H](C)O)CCCCCCC=CCCC[C@@](C)(C(N)=O)NC(=O)[C@H](CC(C)C)NC1=O` [VIP-150]: the Kd was 54.2 ± 5.9 nM.
With `CC(=O)N[C@@H](CCCCN)C(=O)N[C@@H](CC(C)C)C(=O)N[C@@H](C)C(=O)N[C@@H](CCCCN)C(=O)NCCCCCC(=O)N[C@H](C(=O)N[C@@H](CO)C(=O)N[C@@H](Cc1ccccc1)C(=O)N[C@]1(C)CCCCCCC=CCCC[C@@](C)(C(=O)N[C@@H](CCC(=O)O)C(=O)N[C@@H](CC(N)=O)C(=O)N[C@@H](Cc2ccccc2)C(N)=O)NC(=O)[C@H](CC(C)C)NC(=O)[C@H](CC(C)C)NC(=O)[C@H](C)NC(=O)[C@H](Cc2c[nH]c3ccccc23)NC(=O)[C@H](Cc2ccc(O)cc2)NC(=O)[C@H](CCC(=O)O)NC1=O)[C@@H](C)O` [VIP-129] (Ac-KLAK[Ahx]TSF[R8]EYWALL[S5]ENF-NH2; staple 9-16), the Kd was determined as 9.1 ± 1 nM.
The same measure for `CC(=O)N[C@@H](CCCNC(=N)N)C(=O)NCCCCCC(=O)N[C@H](C(=O)N[C@@H](CO)C(=O)N[C@@H](Cc1ccccc1)C(=O)N[C@]1(C)CCCCCCC=CCCC[C@@](C)(C(=O)N[C@@H](CCC(=O)O)C(=O)N[C@@H](CC(N)=O)C(=O)N[C@@H](Cc2ccccc2)C(N)=O)NC(=O)[C@H](CC(C)C)NC(=O)[C@H](CC(C)C)NC(=O)[C@H](C)NC(=O)[C@H](Cc2c[nH]c3ccccc23)NC(=O)[C@H](Cc2ccc(O)cc2)NC(=O)[C@H](CCC(=O)O)NC1=O)[C@@H](C)O` [VIP-118]: 39.5 ± 3.9 nM; for `CC(=O)N[C@H](C(=O)N[C@@H](CO)C(=O)N[C@@H](Cc1ccccc1)C(=O)N[C@]1(C)CCCCCCC=CCCC[C@@](C)(C(=O)N[C@@H](CCC(=O)O)C(N)=O)NC(=O)[C@H](CC2CCC2)NC(=O)[C@H](CC(C)C)NC(=O)[C@H](C)NC(=O)[C@H](Cc2c[nH]c3cc(Cl)ccc23)NC(=O)[C@H](Cc2ccc(O)cc2)NC(=O)[C@H](CCC(=O)O)NC1=O)[C@@H](C)O` [VIP-138] (Ac-TSF[R8]EY[Trp(6-Cl)]AL[Cba][S5]E-NH2; staple 4-11): under 1 nM.
Take `CC(=O)N[C@@H](Cc1c[nH]cn1)C(=O)N[C@@H](Cc1c[nH]cn1)C(=O)N[C@@H](Cc1c[nH]cn1)C(=O)NCCCCCC(=O)N[C@H](C(=O)N[C@@H](CO)C(=O)N[C@@H](Cc1ccccc1)C(=O)N[C@]1(C)CCCCCCC=CCCC[C@@](C)(C(=O)N[C@@H](CCC(=O)O)C(=O)N[C@@H](CC(N)=O)C(=O)N[C@@H](Cc2ccccc2)C(N)=O)NC(=O)[C@H](CC(C)C)NC(=O)[C@H](CC(C)C)NC(=O)[C@H](C)NC(=O)[C@H](Cc2c[nH]c3ccccc23)NC(=O)[C@H](Cc2ccc(O)cc2)NC(=O)[C@H](CCC(=O)O)NC1=O)[C@@H](C)O` [VIP-81] (Ac-HHH[Ahx]TSF[R8]EYWALL[S5]ENF-NH2; staple 8-15): the Kd was determined as 61.2 ± 6.5 nM.
Take `CC(=O)N[C@@H](CCCCN)C(=O)NCCCCCC(=O)N[C@H](C(=O)N[C@@H](CO)C(=O)N[C@@H](Cc1ccccc1)C(=O)N[C@]1(C)CCCCCCC=CCCC[C@@](C)(C(=O)N[C@@H](CCC(=O)O)C(=O)N[C@@H](CC(N)=O)C(=O)N[C@@H](Cc2ccccc2)C(N)=O)NC(=O)[C@H](CC(C)C)NC(=O)[C@H](CC(C)C)NC(=O)[C@H](C)NC(=O)[C@H](Cc2c[nH]c3ccccc23)NC(=O)[C@H](Cc2ccc(O)cc2)NC(=O)[C@H](CCC(=O)O)NC1=O)[C@@H](C)O` [VIP-116]: the Kd was 15.1 ± 1.7 nM.
Take `CC(=O)N[C@@H](CCCCN)C(=O)N[C@@H](CCCCN)C(=O)N[C@@H](CO)C(=O)NCC(=O)N[C@@H](CO)C(=O)NCC(=O)N[C@H](C(=O)N[C@@H](CO)C(=O)N[C@@H](Cc1ccccc1)C(=O)N[C@]1(C)CCCCCCC=CCCC[C@@](C)(C(N)=O)NC(=O)[C@H](CC(C)C)NC(=O)[C@H](CC(C)C)NC(=O)[C@H](C)NC(=O)[C@H](Cc2c[nH]c3ccccc23)NC(=O)[C@H](Cc2ccc(O)cc2)NC(=O)[C@H](CCC(=O)O)NC1=O)[C@@H](C)O` [VIP-151] (Ac-KKSGSGTSF[R8]EYWALL[S5]-NH2; staple 10-17): the Kd turned out to be 33.6 ± 5.6 nM.
Regarding `CC(=O)N[C@@H](CCCNC(=N)N)C(=O)N[C@@H](CCCNC(=N)N)C(=O)N[C@@H](CCCNC(=N)N)C(=O)NCCCCCC(=O)N[C@H](C(=O)N[C@@H](CO)C(=O)N[C@@H](Cc1ccccc1)C(=O)N[C@]1(C)CCCCCCC=CCCC[C@@](C)(C(=O)N[C@@H](CCC(=O)O)C(=O)N[C@@H](CC(N)=O)C(=O)N[C@@H](Cc2ccccc2)C(N)=O)NC(=O)[C@H](CC(C)C)NC(=O)[C@H](CC(C)C)NC(=O)[C@H](C)NC(=O)[C@H](Cc2c[nH]c3ccccc23)NC(=O)[C@H](Cc2ccc(O)cc2)NC(=O)[C@H](CCC(=O)O)NC1=O)[C@@H](C)O` [VIP-80] (Ac-RRR[Ahx]TSF[R8]EYWALL[S5]ENF-NH2; staple 8-15), the Kd stood at 45 ± 4.1 nM.
As to `CC(=O)N[C@@H](CCCCN)C(=O)N[C@@H](CCCCN)C(=O)N[C@@H](CCCCN)C(=O)NCCCCCC(=O)N[C@H](C(=O)N[C@@H](CO)C(=O)N[C@@H](Cc1ccccc1)C(=O)N[C@]1(C)CCCCCCC=CCCC[C@@](C)(C(=O)N[C@@H](CCC(=O)O)C(=O)N[C@@H](CC(N)=O)C(=O)N[C@@H](Cc2ccccc2)C(N)=O)NC(=O)[C@H](CC(C)C)NC(=O)[C@H](CC(C)C)NC(=O)[C@H](C)NC(=O)[C@H](Cc2c[nH]c3ccccc23)NC(=O)[C@H](Cc2ccc(O)cc2)NC(=O)[C@H](CCC(=O)O)NC1=O)[C@@H](C)O` [VIP-115] (Ac-KKK[Ahx]TSF[R8]EYWALL[S5]ENF-NH2; staple 8-15), the Kd amounted to 11.6 ± 1.2 nM.
